The source of these data is the supplement of paper PMC7600603.

Experiment [1] relates to DLD1 NRF2-WT. The conditions noted are these: 72 h; CellTiter-Glo viability. The procedure, abridged:
(§1)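 Isogenic DLD1 colorectal cancer cells, either NRF2 wild-type or CRISPR gain-of-function, were grown in DMEM with 10% FBS. They were exposed in 384-well plates to library compounds at 5 concentrations spanning a 10,000-fold range. After 72 h, viability was read by CellTiter-Glo on a Pherastar FS reader and normalised to vehicle wells and 100-μM positive-control wells. EC50 and drug sensitivity score (a normalised area under the curve) came from four-parameter logistic dose-response fits.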
(In general: ATP-based viability assays read luminescence as a measure of living cells.)

The subject of experiment [2] is DLD1 NRF2-GOF. Briefly: TC50 cytotoxicity; higher = less toxic. The conditions noted are these: 72 h; CellTox Green cytotoxicity. The procedure, abridged:
(§2)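 After growth in DMEM with 10% FBS, NRF2 wild-type and CRISPR-edited isogenic DLD1 cells were seeded in 384-well plates and given library compounds at 5 concentrations across a 10,000-fold range. Fluorescence from CellTox Green was taken on a Pherastar FS reader after 72 h and normalised against vehicle wells and 100-μM positive-control wells. From logistic dose-response fits of cytotoxicity came the TC50 and the drug sensitivity score, a normalised area under the curve.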

In experiment [3] the test system is DLD1 NRF2-WT. The experiment in a line: TC50 cytotoxicity; higher = less toxic. The note with it: 72 h; CellTox Green cytotoxicity. The procedure, abridged:
as §2

The subject of experiment [4] is DLD1 NRF2-GOF. Briefly: drug sensitivity score (DSS) cytotoxicity (DSS score); higher = more toxic; extreme values may be limits of the assay. The note with it: 72 h; CellTox Green cytotoxicity. Put shortly:
as §2

The subject of experiment [5] is DLD1 NRF2-WT. The experiment is described as above. The note with it: 72 h; CellTox Green cytotoxicity. Put shortly: as §2
Experiment [6] has as its system DLD1 NRF2-GOF. Briefly: drug sensitivity score (DSS) viability (DSS score); higher = more sensitive; extreme values may be limits of the assay. The conditions noted are these: 72 h; CellTiter-Glo viability. Put shortly: as §1
The test system of experiment [7] is DLD1 NRF2-WT. The experiment is described as above. The note with it: 72 h; CellTiter-Glo viability. The procedure, abridged: as §1

Turning to `Cc1nn(C)c(COc2ccc(N3CCN(S(=O)(=O)N(C)C)CC3)cc2)c1-c1cccc2c(CCCOc3cccc4ccccc34)c(C(=O)O)n(CCN3CCOCC3)c12`, in the experiment with DLD1 NRF2-WT [1], the EC50 viability was greater than 50 µM. Moreover, the TC50 cytotoxicity in the experiment on DLD1 NRF2-GOF [2] and with DLD1 NRF2-WT [3] was greater than 50 µM in each case. In addition, the drug sensitivity score amounted to 0 with DLD1 NRF2-GOF [4], 0 with DLD1 NRF2-WT [5], 2.1 in the experiment with DLD1 NRF2-GOF [6] and 1.9 with DLD1 NRF2-WT [7].
In the case of `Nc1cc(COc2c(Cl)cc(C[C@H](N)C(=O)O)cc2Cl)c2oc(-c3ccccc3)nc2c1` [JPH203], the EC50 viability in the experiment with DLD1 NRF2-WT [1] is greater than 5 µM. For the same compound, the TC50 cytotoxicity in the experiment with DLD1 NRF2-GOF [2] and in the experiment on DLD1 NRF2-WT [3] was greater than 5 µM in each case. Moreover, the drug sensitivity score in the experiment with DLD1 NRF2-GOF [4] stood at 0; with DLD1 NRF2-WT [5], 0; in the experiment with DLD1 NRF2-GOF [6], 5.3; with DLD1 NRF2-WT [7], 4.2.
Regarding `COc1cc(OC2CCN(C)CC2)ccc1Nc1ncc2c(n1)n(C1CCCC1)c(=O)n2C` [AZ 3146], the EC50 viability in the experiment on DLD1 NRF2-WT [1] is 1.25 µM. Besides, the TC50 cytotoxicity in the experiment on DLD1 NRF2-GOF [2] is greater than 10 µM; with DLD1 NRF2-WT [3], 1.58 µM. Besides, the drug sensitivity score was found to be 1.6 in the experiment on DLD1 NRF2-GOF [4], 2.5 in the experiment with DLD1 NRF2-WT [5] and 8 in the experiment on DLD1 NRF2-WT [7].
On to `CC(=O)Nc1cccc(-n2c(=O)n(C3CC3)c(=O)c3c(Nc4ccc(I)cc4F)n(C)c(=O)c(C)c32)c1` [Trametinib], for which the EC50 viability in the experiment on DLD1 NRF2-WT [1] was determined as 0.037 µM. For the same compound, the TC50 cytotoxicity with DLD1 NRF2-GOF [2] and in the experiment on DLD1 NRF2-WT [3] was greater than 0.25 µM each time. Moreover, the drug sensitivity score amounted to 0 in the experiment on DLD1 NRF2-GOF [4], 0 with DLD1 NRF2-WT [5] and 3.1 with DLD1 NRF2-WT [7].
Regarding `CNCc1ccc(-c2[nH]c3cc(F)cc4c3c2CCNC4=O)cc1` [Rucaparib], the TC50 cytotoxicity in the experiment with DLD1 NRF2-GOF [2] and in the experiment on DLD1 NRF2-WT [3] was greater than 10 µM in each case. The drug sensitivity score with DLD1 NRF2-GOF [4] came to 0; in the experiment with DLD1 NRF2-WT [5] it was 0; in the experiment with DLD1 NRF2-GOF [6] it was 2.7; in the experiment on DLD1 NRF2-WT [7], 0.8.
As for `Cc1c(N)nc([C@H](CC(N)=O)NC[C@H](N)C(N)=O)nc1C(=O)N[C@H](C(=O)N[C@H](C)[C@@H](O)[C@H](C)C(=O)N[C@H](C(=O)NCCc1nc(-c2nc(C(=O)NCCC[S+](C)C)cs2)cs1)[C@@H](C)O)[C@@H](O[C@@H]1O[C@@H](CO)[C@@H](O)[C@H](O)[C@@H]1O[C@H]1O[C@H](CO)[C@@H](O)[C@H](OC(N)=O)[C@@H]1O)c1c[nH]cn1` [Bleomycin], the EC50 viability with DLD1 NRF2-WT [1] is greater than 10 µM. For the same compound, the TC50 cytotoxicity with DLD1 NRF2-GOF [2] and in the experiment with DLD1 NRF2-WT [3] was greater than 10 µM in each case. For the same compound, the drug sensitivity score with DLD1 NRF2-GOF [4] is 0; in the experiment with DLD1 NRF2-WT [5] it was 0; in the experiment on DLD1 NRF2-GOF [6], 2.6; with DLD1 NRF2-WT [7], 0.4.
In the experiment on DLD1 NRF2-WT [1], `CC[C@H](CO)Nc1nc(NCc2ccccc2)c2ncn(C(C)C)c2n1` [Seliciclib] had an EC50 viability of 4.17 µM. The TC50 cytotoxicity in the experiment on DLD1 NRF2-GOF [2] and with DLD1 NRF2-WT [3] was greater than 10 µM each time. The drug sensitivity score in the experiment on DLD1 NRF2-GOF [4] is 0; in the experiment with DLD1 NRF2-WT [5], 0; with DLD1 NRF2-WT [7], 1.1.
As to `Cc1cccc(CC(=O)N2CCc3c2ccc(-c2cn(C)c4ncnc(N)c24)c3F)n1`, in the experiment with DLD1 NRF2-WT [1], the EC50 viability was 0.808 µM. Moreover, the TC50 cytotoxicity with DLD1 NRF2-GOF [2] and in the experiment on DLD1 NRF2-WT [3] was greater than 2.5 µM throughout. Besides, the values for the drug sensitivity score in the experiment on DLD1 NRF2-GOF [4], with DLD1 NRF2-WT [5] and in the experiment on DLD1 NRF2-WT [7] were 0, 0 and 2.5, respectively.
For `COc1cc2/c(=N/c3ccc(Br)cc3F)nc[nH]c2cc1OCC1CCN(C)CC1` [Vandetanib], the TC50 cytotoxicity with DLD1 NRF2-GOF [2] and with DLD1 NRF2-WT [3] was greater than 1 µM in each case. In addition, the drug sensitivity score in the experiment on DLD1 NRF2-GOF [4] was 0; with DLD1 NRF2-WT [5], 0; in the experiment with DLD1 NRF2-GOF [6], 2.3; in the experiment on DLD1 NRF2-WT [7], 6.9.
For the compound `CC1(C)CNc2cc(NC(=O)c3cccnc3NCc3ccncc3)ccc21` [Motesanib], in the experiment with DLD1 NRF2-WT [1], the EC50 viability was determined as 0.565 µM. Moreover, the TC50 cytotoxicity in the experiment with DLD1 NRF2-GOF [2] and in the experiment on DLD1 NRF2-WT [3] was greater than 10 µM throughout. Also, the drug sensitivity score with DLD1 NRF2-GOF [4] was found to be 0; in the experiment with DLD1 NRF2-WT [5] it was 0; in the experiment on DLD1 NRF2-GOF [6] it was 3.1; in the experiment on DLD1 NRF2-WT [7], 4.5.
`O=C1Cc2cc(C(=O)NC3C[C@H]4CC[C@@H](C3)N4S(=O)(=O)CC3CCN(CCCC(F)(F)F)CC3)c(Cl)cc2N1` (stereo partly specified): in the experiment with DLD1 NRF2-WT [1], the EC50 viability was greater than 10 µM. Besides, the TC50 cytotoxicity in the experiment with DLD1 NRF2-GOF [2] and in the experiment on DLD1 NRF2-WT [3] was greater than 10 µM each time. Further, the drug sensitivity score in the experiment with DLD1 NRF2-GOF [4] was found to be 0; in the experiment with DLD1 NRF2-WT [5], 0; with DLD1 NRF2-GOF [6], 4.1; in the experiment on DLD1 NRF2-WT [7], 0.
